Experimental data taken from article PMC3160846 (PLoS ONE, 2011).

Key:
Aurora-A = target: T1, Aurora-A (Homo sapiens, UniProt O14965); assay: In vitro kinase inhibition assay, Aurora-A; format: biochemical; settings: recombinant GST-tagged Aurora-A, 37°C, 90 min
T1 construct: GST-tagged Aurora-A (residues S123-S401) containing kinase domain; GST; made in house; host or cells: Sf9 insect cells
Experimental: Aurora-A and Aurora-B kinase - The recombinant GST-tagged Aurora-A (residues S123-S401) containing kinase domain was expressed in Sf9 insect cells. The recombinant full length His-tagged Aurora-B (residues M1∼A344) was purchased from Invitrogen (PV3970). The kinase assay were carried out in 96-well plates with the tested compound at either 37°C (Aurora-A) for 90 min or 30°C (Aurora-B) for 120 min.
(§1) Composition of the reaction buffers used in different kinase inhibitory assays is described in Figure S3.
50 mM Tris-HCl pH 7.4, 10 mM NaCl, 10 mM MgCl2, 0.01% BSA, 5 mM ATP, 1 mM DTT and […] tetra(LRRASLG) peptide, and either 150 ng recombinant Aurora-A or 40 ng recombinant Aurora-B.

CHK1 = target: T2, CHK1 (Homo sapiens, UniProt O14757); assay: Kinase inhibition assay, CHK1; format: biochemical
T2 construct: His-tagged CHK1 (residues M1-T476); His; made in house; host or cells: Sf9 insect cells
T2 sequence (O14757 whole entry, the tested form may be a part): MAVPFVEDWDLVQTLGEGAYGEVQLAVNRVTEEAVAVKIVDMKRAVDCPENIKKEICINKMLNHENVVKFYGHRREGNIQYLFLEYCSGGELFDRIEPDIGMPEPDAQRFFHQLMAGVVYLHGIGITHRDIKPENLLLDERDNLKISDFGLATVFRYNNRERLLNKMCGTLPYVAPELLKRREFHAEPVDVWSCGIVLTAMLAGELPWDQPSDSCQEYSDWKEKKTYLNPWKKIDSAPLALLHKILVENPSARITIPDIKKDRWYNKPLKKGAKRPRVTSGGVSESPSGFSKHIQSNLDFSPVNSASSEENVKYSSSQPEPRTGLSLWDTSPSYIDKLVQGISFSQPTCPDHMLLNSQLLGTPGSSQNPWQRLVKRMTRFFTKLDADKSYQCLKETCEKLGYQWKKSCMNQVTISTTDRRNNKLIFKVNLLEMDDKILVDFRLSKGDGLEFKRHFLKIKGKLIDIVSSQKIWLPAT
Experimental: (§2) CHK1/2 – The recombinant His-tagged CHK1 (residues M1-T476) or CHK2 (residues M1-L543) containing kinase domain were expressed in Sf9 insect cells. The kinase assay was carried out in 96-well plates with the tested compound at 30°C for 120 min.
as §1
(§3) 25 mM HEPES pH 7.4, 10mM MgCl2, 4mM MnCl2, 0.5mM Na3VO4, 2 mM DTT, 0.02% Triton X100, 0.01% BSA, 1 mM ATP, 2 mM CHK peptide ([…]), 50~500 ng recombinant CHK1 or CHK2.

CHK2 = target: T3, CHK2 (Homo sapiens, UniProt O96017); assay: Kinase inhibition assay, CHK2; format: biochemical
T3 construct: CHK2 (residues M1-L543) containing kinase domain; His; made in house; host or cells: Sf9 insect cells
T3 sequence (O96017 whole entry, the tested form may be a part): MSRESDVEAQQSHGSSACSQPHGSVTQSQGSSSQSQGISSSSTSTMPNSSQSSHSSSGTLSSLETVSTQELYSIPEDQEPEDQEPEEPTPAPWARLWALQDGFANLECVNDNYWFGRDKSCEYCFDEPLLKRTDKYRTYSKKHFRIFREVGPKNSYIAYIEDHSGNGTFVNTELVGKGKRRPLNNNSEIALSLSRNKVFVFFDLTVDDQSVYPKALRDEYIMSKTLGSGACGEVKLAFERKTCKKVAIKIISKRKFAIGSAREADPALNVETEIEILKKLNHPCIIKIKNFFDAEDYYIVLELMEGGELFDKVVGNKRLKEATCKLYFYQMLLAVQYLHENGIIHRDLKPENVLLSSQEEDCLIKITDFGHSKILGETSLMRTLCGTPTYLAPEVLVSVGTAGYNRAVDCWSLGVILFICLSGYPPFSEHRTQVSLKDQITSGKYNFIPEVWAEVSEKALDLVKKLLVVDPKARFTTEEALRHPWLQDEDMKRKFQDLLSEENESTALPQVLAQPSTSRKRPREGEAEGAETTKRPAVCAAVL
Experimental: as §2, §1, §3

EGFR = target: T4, EGFR (Homo sapiens, UniProt P00533); assay: Kinase inhibition assay, EGFR; format: biochemical
T4 construct: GST-tagged EGFR (residues G696-G1022) containing kinase domain; GST; made in house; host or cells: Sf9 insect cells
T4 sequence (P00533 696-1022): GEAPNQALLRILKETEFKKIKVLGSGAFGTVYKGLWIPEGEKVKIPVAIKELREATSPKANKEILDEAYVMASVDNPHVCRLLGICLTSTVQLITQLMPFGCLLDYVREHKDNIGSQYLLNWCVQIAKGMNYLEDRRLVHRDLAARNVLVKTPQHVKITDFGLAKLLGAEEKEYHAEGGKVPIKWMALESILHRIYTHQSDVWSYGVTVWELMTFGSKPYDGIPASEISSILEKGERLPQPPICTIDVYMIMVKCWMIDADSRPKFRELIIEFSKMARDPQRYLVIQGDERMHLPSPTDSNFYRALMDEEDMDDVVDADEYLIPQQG
Experimental: EGFR – The recombinant GST-tagged EGFR (residues G696-G1022) containing kinase domain was expressed in Sf9 insect cells. The kinase assay was carried out in 96-well plates with the tested compound at 37°C for 60 min.
as §1
25 mM Tris pH 7.4 (EGFR), 10 m M MgCl2, 4 mM MnCl2, 0.5 mM Na3VO4, 2 mM DTT, 0.02% Triton X100, 0.01% BSA, […], 2 mM polyGlu4:Tyr peptide, 80~500 ng recombinant EGFR.

NTUB1 cells = assay: Clonogenic assay, NTUB1; format: cell-based, Human; settings: Homo sapiens; NTUB1, bladder, MDR1 negative (parental); read-out: IC50, anti-proliferative activity
Experimental: Human lung adenocarcinoma A549 cells and NTUB1 bladder cancer cells were maintained in RPMI supplied with 10% fetal bovine serum. […] KB-derived MRP1-expressing cell line, KB-7D, was maintained in growth medium supplemented with 7 µM VP-16.
Two hundred cells in logarithmic growth phase were seeded in a 6-well plate. The cells were exposed to various concentrations of the test drugs for a three-generation period. At the end of the incubation period, cells were fixed and stained with 50% ethanol containing 0.5% methylene blue for 30 min. The plates were washed five times with water and allowed to air-dry. Colonies were countered manually. […] Each value represents the average of at least three independent experiments run in triplicates.

T1 sequence (O14965 123-401): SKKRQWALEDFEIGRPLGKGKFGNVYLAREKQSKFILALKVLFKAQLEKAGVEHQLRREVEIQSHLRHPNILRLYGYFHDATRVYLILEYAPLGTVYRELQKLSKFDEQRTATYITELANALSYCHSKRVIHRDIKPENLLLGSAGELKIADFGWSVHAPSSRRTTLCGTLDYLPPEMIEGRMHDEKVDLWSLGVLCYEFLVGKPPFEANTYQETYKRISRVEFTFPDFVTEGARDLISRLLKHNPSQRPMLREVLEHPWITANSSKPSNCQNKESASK

IC50 (Aurora-A): 0.124 µM | IC50 (CHK1): > 10 µM | IC50 (CHK2): 2.3 µM | IC50 (EGFR): > 10 µM
Structure (SMILES): CN(C)Cc1ccccc1NC(=O)Nc1ccc(CCNc2ncnc3oc(-c4ccccc4)c(Cl)c23)cc1 [BPR1K653]
IC50 (NTUB1 cells): 0.008 ± 0.004 µM
